pKi: −log10 of the molar value. Where a SMILES comes first, the peptide text is derived from it. Side-chain parts run from the residue outwards. The star is where a group is joined. X1 = CN1CC[C@]23c4c5ccc(O)c4O[C@H]2[C@@H](N*)CC[C@@]3(O)C1C5
Assay: Binding affinity of Opioid receptor delta 1 by the displacement of delta-selective [3H]DSLET from brain membrane preparations.

**Q.** With CC(=O)N[C@H]1CC[C@@]2(O)C3Cc4ccc(O)c5c4[C@@]2(CCN3C)[C@H]1O5 [N-[(1S,13R,14S,17S)-10,17-dihydroxy-4-methyl-12-oxa-4-azapentacyclo[9.6.1.0^{1,13}.0^{5,17}.0^{7,18}]octadeca-7(18),8,10-trien-14-yl]acetamide] as the compound, how does the pKi read?
**A.** Its pKi is 6.79.

**Q.** With H-YQGFL-OH as the compound, how does the pKi read?
**A.** The pKi was 7.33.

**Q.** With CC(=O)NCC(=O)NCC(=O)N[C@H]1CC[C@@]2(O)C3Cc4ccc(O)c5c4[C@@]2(CCN3C)[C@H]1O5 [1N-[10,17-dihydroxy-4-methyl-(13R,17S)-12-oxa-4-azapentacyclo[9.6.1.01,13.05,17.07,18]octadeca-7(18),8,10-trien-14-ylcarbamoylmethyl]-2-methylcarboxamidoacetamide] as the compound, how does the pKi read?
**A.** The pKi was 6.74.

**Q.** With CC(C)C[C@H](NC(=O)[C@H](Cc1ccccc1)NC(=O)CNC(=O)[C@H](CCC(=O)NCC(=O)NCC(=O)N[C@H]1CC[C@@]2(O)C3Cc4ccc(O)c5c4[C@@]2(CCN3C)[C@H]1O5)NC(=O)[C@@H](N)Cc1ccc(O)cc1)C(=O)O [oxymorphamine- and enkephalin-containing ligand 2] (H-YE([Gly-Gly-X1])GFL-OH) as the compound, how does the pKi read?
**A.** Its pKi is 7.29.

**Q.** With CC(C)C[C@H](NC(=O)[C@H](Cc1ccccc1)NC(=O)CNC(=O)[C@H](CCC(=O)N[C@H]1CC[C@@]2(O)C3Cc4ccc(O)c5c4[C@@]2(CCN3C)[C@H]1O5)NC(=O)[C@@H](N)Cc1ccc(O)cc1)C(=O)O [oxymorphamine- and enkephalin-containing ligand 1] (H-YE(X1)GFL-OH) as the compound, how does the pKi read?
**A.** Its pKi is 7.59.

**Q.** With CC(C)C[C@H](NC(=O)[C@H](Cc1ccccc1)NC(=O)CNC(=O)[C@H](CCC(=O)NCC(=O)NCC(N)=O)NC(=O)[C@@H](N)Cc1ccc(O)cc1)C(=O)O (H-YE([Gly-Gly-NH2])GFL-OH) as the compound, how does the pKi read?
**A.** The pKi was 7.06.
